34 molecules from US20250009745A1, “CDK INHIBITOR” (SHANGHAI QILU PHARMACEUTICAL RESEARCH AND DEVELOPMENT …, priority 2021, published 2025) can be followed below.

Bounds are passed on as bounds.

Holding throughout (assay): CDK enzymology experiment in vitro, capillary mobility shift assay (MSA)
Common to all, as to type: biochemical

One assay deals with T1, CDK6 (Homo sapiens, UniProt Q00534).
T1 construct: purchased Carna Company
The note with it: read-out: CDK6 (nM) inhibitory IC50. How it is done:
(§1) CDK1/CDK2/CDK4/CDK6/CDK7/CDK9 were purchased from Carna Company; Carliper substrate CTD3/substrate 18/substrate 8 were purchased from Gil Biochemical Company; Dinaciclib/Palbociclib were purchased from Selleckchem Company; DMSO was purchased from Sigma Company; 384-well plates were purchased from Corning Company.
• (1) Preparation of 1×Kinase buffer. • (2) Preparation of compound concentration gradient: Test concentration of the test compound was started at 1 μM, 10 μM or 30 μM, 3-fold dilution, 10 concentrations, detected in duplicate. […] Liquid handler Echo 550 was used to transfer 250 nL of 100-fold final concentration of the compound to the target plate 384-well plate. […] The 384-well plate was centrifuged at 1000 rpm for 30 seconds, and shaken to mix uniformly. • (10) The conversion rate was read with Caliper EZ Reader.
(§2) Where, conversion %_sample is the readings of conversion rate of the sample; conversion %_min: the average value of negative control wells, representing the readings of conversion rate of wells without enzyme activity; conversion %_max: the average value of positive control wells, representing the readings of conversion rate of wells without compound inhibition.
(§3) Taking the log value of the concentration as the X-axis, and the percentage inhibition rate as the Y-axis, the dose-effect curve was fitted using the log(inhibitor) vs. response—Variable slope of the analysis software GraphPad Prism 5 so as to obtain the IC50 value of each compound on the enzyme activity.
(§4) Y=Bottom+(Top−Bottom)/(1+10^((Log IC50−X)*HillSlope)). Calculation formula: […]

The target of a further assay is T2, CDK2 (Homo sapiens, UniProt P24941).
T2 construct: purchased Carna Company
To be noted: read-out: CDK2 (nM) inhibitory IC50. The method, then: as §1
(§5) • (1) Preparation of 1×Kinase buffer. • (2) Preparation of compound concentration gradient: Test concentration of the test compound was started at 1 μM, 10 μM or 30 μM, 3-fold dilution, 10 concentrations, detected in duplicate. The test compound was diluted to a 100-fold final concentration with 100% DMSO solution in a 384 source plate. Liquid handler Echo 550 was used to transfer 250 nL of 100-fold final concentration of the compound to the target plate 384-well plate. […] The 384-well plate was centrifuged at 1000 rpm for 30 seconds, and shaken to mix uniformly. • (10) The conversion rate was read with Caliper EZ Reader.
as §2, §3, §4

A further assay has as its target T3, CDK4 (Homo sapiens, UniProt P11802).
T3 construct: purchased Carna Company
To be noted: read-out: CDK4 (nM) inhibitory IC50. How it is done:
as §1, §5, §2, §3, §4

T1 sequence (Q00534 whole entry): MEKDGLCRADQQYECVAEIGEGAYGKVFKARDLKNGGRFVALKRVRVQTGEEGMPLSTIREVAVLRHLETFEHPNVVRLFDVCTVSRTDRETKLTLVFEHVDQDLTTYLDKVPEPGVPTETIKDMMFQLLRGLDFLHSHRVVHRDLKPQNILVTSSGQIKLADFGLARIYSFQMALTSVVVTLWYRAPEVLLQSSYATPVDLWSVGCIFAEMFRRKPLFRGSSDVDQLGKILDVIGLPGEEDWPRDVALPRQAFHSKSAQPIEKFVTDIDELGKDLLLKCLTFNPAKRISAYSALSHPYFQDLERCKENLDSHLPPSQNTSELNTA
T1 sequence (P30281 whole entry partner): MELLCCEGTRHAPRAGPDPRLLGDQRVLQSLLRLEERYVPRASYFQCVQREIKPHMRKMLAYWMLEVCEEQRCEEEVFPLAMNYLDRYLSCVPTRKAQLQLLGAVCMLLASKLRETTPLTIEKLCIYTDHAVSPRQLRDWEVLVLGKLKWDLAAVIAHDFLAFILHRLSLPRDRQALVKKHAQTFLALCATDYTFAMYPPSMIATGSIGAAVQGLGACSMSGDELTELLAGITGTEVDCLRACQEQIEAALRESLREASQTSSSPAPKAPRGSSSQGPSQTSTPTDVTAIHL
T3 sequence (P11802 whole entry): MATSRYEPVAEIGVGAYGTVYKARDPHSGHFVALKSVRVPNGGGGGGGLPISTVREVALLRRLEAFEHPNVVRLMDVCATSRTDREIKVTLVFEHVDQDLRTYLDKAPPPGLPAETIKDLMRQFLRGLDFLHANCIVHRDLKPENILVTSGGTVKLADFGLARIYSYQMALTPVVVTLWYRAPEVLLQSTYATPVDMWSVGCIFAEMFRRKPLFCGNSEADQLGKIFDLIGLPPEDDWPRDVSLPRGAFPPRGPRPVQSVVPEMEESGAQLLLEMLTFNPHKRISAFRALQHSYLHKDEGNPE
T3 sequence (P30281 whole entry partner): as the sequence (P30281 whole entry partner) above

On to `Cn1cc(-c2ccc(S(=O)(=O)N3CCC(Nc4ncc(C#N)c(N[C@H]5CC[C@@H](O)C5)n4)CC3)cc2)cn1` (relative stereo) [Compound 62], for which the IC50 on CDK6, at CDK2 and at CDK4 was 0.5 to 2.5 nM in each case.
`O=S(=O)(c1ccc(C2CCNCC2)cn1)N1CCC(Nc2ncc(C(F)(F)F)c(O[C@H]3CCOC3)n2)CC1` [Compound 177]: the IC50 at CDK6 was 0.5 to 2.5 nM; on CDK2 it was less than 0.5 nM; on CDK4 it was 0.5 to 2.5 nM.
For `N#Cc1cnc(NC2CCN(S(=O)(=O)c3ccc(C4=CCNCC4)cc3)CC2)nc1O[C@H]1CCOC1` [Compound 104], the figures for the IC50 on CDK6, at CDK2 and on CDK4 were 0.5 to 2.5 nM, 0.5 to 2.5 nM and 2.5 to 10 nM, respectively.
For `Cc1cc(S(=O)(=O)N2CCC(Nc3ncc(C(F)(F)F)c(O[C@H]4CCOC4)n3)CC2)ccc1C1=CCCNC1` [Compound 196], the IC50 on CDK6 is 0.5 to 2.5 nM; at CDK2, less than 0.5 nM; on CDK4, 0.5 to 2.5 nM.
Turning to `O=S(=O)(c1ccc(C2CCNCC2)cc1)N1CCC(Nc2ncc(C(F)(F)F)c(NC3CCCC3(F)F)n2)CC1` (centres unmarked) [Compound 137], the half-inhibitory concentration (IC50) on CDK6, on CDK2 and at CDK4 was 0.5 to 2.5 nM each time.
`C[C@@H]1CN(c2ccc(S(=O)(=O)N3CCC(Nc4ncc(C(F)(F)F)c(O[C@@H]5CCOC5)n4)CC3)cc2)C[C@H](C)N1` [Compound 210]: the IC50 on CDK6 is 2.5 to 10 nM; on CDK2, 0.5 to 2.5 nM; at CDK4, 10 to 50 nM.
The like results for `O=S(=O)(c1ccc(C2CCNC2)cc1)N1CCC(Nc2ncc(C(F)(F)F)c(O[C@H]3CCOC3)n2)CC1` (some centres unmarked) [Compound 145] were, in that order, 0.5 to 2.5 nM, less than 0.5 nM and 0.5 to 2.5 nM.
Regarding `O=S(=O)(c1ccc(C23CCNCC2C3)cc1)N1CCC(Nc2ncc(C(F)(F)F)c(O[C@H]3CCOC3)n2)CC1` (some centres unmarked) [Compound 159], the IC50 at CDK6, on CDK2 and on CDK4 was 0.5 to 2.5 nM throughout.
With `N#Cc1cnc(NC2CCN(S(=O)(=O)c3ccc(C4CCNCC4)cc3)CC2)nc1NC1CCCC1` [Compound 101], the IC50 on CDK6, on CDK2 and at CDK4 was 0.5 to 2.5 nM each time.
For the molecule `Cc1cc(S(=O)(=O)N2CCC(Nc3ncc(C(F)(F)F)c(O[C@H]4CCOC4)n3)CC2)ccc1N1CCNCC1` [Compound 171], the IC50 at CDK6 was 0.5 to 2.5 nM; on CDK2, less than 0.5 nM; at CDK4 it was 0.5 to 2.5 nM.
For the molecule `O=S(=O)(c1ccc(C2=CCNCC2)cc1)N1CCC(Nc2ncc(C(F)(F)F)c(N[C@H]3CCOC3)n2)CC1` [Compound 93], the IC50 was 0.5 to 2.5 nM on CDK6, 0.5 to 2.5 nM on CDK2 and 2.5 to 10 nM at CDK4.
Consider `CN1CC=C(c2ccc(S(=O)(=O)N3CCC(Nc4ncc(C(F)(F)F)c(O[C@H]5CCOC5)n4)CC3)cc2)CC1` [Compound 203], for which the values for the IC50 on CDK6, on CDK2 and at CDK4 were 0.5 to 2.5 nM, less than 0.5 nM and less than 0.5 nM, respectively.
In the case of `CN1CCC(c2ccc(S(=O)(=O)N3CCC(Nc4ncc(C#N)c(NC5CCCC5)n4)CC3)cc2)CC1` [Example 17, 4-(Cyclopentylamino)-2-((1-((4-(1-methylpiperidin-4-yl)phenyl)sulfonyl)piperidin-4-yl)amino)pyrimidine-5-carbonitrile], the IC50 at CDK6, on CDK2 and at CDK4 was 0.5 to 2.5 nM each time.
Consider `O=S(=O)(c1ccc(C2CCCNC2)c(F)c1)N1CCC(Nc2ncc(C(F)(F)F)c(O[C@H]3CCOC3)n2)CC1` (some centres unmarked) [Compound 193], for which the results for the IC50 on CDK6, on CDK2 and at CDK4 were 0.5 to 2.5 nM, less than 0.5 nM and 0.5 to 2.5 nM, respectively.
On to `O=S(=O)(c1ccc(N2CC3CNCC3C2)nc1)N1CCC(Nc2ncc(C(F)(F)F)c(O[C@H]3CCOC3)n2)CC1` (some centres unmarked) [Compound 190], for which the IC50 at CDK6 was 0.5 to 2.5 nM; on CDK2, less than 0.5 nM; on CDK4, 0.5 to 2.5 nM.
Regarding `N#Cc1cnc(NC2CCN(S(=O)(=O)c3ccc(C4=CCNCC4)cc3)CC2)nc1NC1CCCC1(F)F` (centres unmarked) [Compound 135], the IC50 on CDK6, on CDK2 and on CDK4 was 0.5 to 2.5 nM each time.
As for `CN1CCN(c2ccc(S(=O)(=O)N3CCC(Nc4ncc(C#N)c(NC5CCCC5)n4)CC3)cc2)CC1` [Example 18, 4-(Cyclopentylamino)-2-((1-((4-(4-methylpiperazin-1-yl)phenyl)sulfonyl)piperidin-4-yl)amino)pyrimidine-5-carbonitrile], the IC50 at CDK6, on CDK2 and on CDK4 was 0.5 to 2.5 nM throughout.
Take `Cn1cc(-c2ccc(S(=O)(=O)N3CCC(Nc4ncc(C#N)c(N[C@H]5CC[C@H](O)C5)n4)CC3)cc2)cn1` (single isomer, unassigned) [Compound 83]: the IC50 on CDK6, on CDK2 and on CDK4 was 0.5 to 2.5 nM in each case.
With `C[C@@H]1CN(c2ccc(S(=O)(=O)N3CCC(Nc4ncc(C(F)(F)F)c(O[C@H]5CCOC5)n4)CC3)cc2)CCN1` [Compound 185], the results for the IC50 on CDK6, at CDK2 and on CDK4 were 0.5 to 2.5 nM, less than 0.5 nM and 0.5 to 2.5 nM, respectively.
`O=S(=O)(c1ccc(C2=CCNCC2)cc1)N1CCC(Nc2ncc(C(F)(F)F)c(NC3CCCC3(F)F)n2)CC1` (centres unmarked) [Compound 136]: the IC50 at CDK6 was 0.5 to 2.5 nM; on CDK2, 0.5 to 2.5 nM; on CDK4, 2.5 to 10 nM.
As for `O=S(=O)(c1ccc(N2C3CNCC2C3)nc1)N1CCC(Nc2ncc(C(F)(F)F)c(O[C@H]3CCOC3)n2)CC1` [Compound 189], the IC50 on CDK6 is 0.5 to 2.5 nM; at CDK2 it was less than 0.5 nM; on CDK4, 0.5 to 2.5 nM.
Take `C[C@@H]1CN(c2ccc(S(=O)(=O)N3CCC(Nc4ncc(C(F)(F)F)c(O[C@H]5CCOC5)n4)CC3)cn2)CCN1` [Compound 187]: the IC50 at CDK6 is 0.5 to 2.5 nM; on CDK2 it was less than 0.5 nM; on CDK4, 0.5 to 2.5 nM.
Take `O=S(=O)([C@H]1CCCNC1)N1CCC(Nc2ncc(C(F)(F)F)c(NC3CCCC3)n2)CC1` [Compound 163]: the IC50 on CDK6 lay in the range of 0.5 to 2.5 nM; at CDK2, 2.5 to 10 nM; at CDK4, 2.5 to 10 nM.
On to `O=S(=O)(c1ccc(N2C3CCC2CNC3)cc1)N1CCC(Nc2ncc(C(F)(F)F)c(O[C@H]3CCOC3)n2)CC1` [Compound 195], for which the IC50 at CDK6 was 0.5 to 2.5 nM; on CDK2 it was less than 0.5 nM; on CDK4, 0.5 to 2.5 nM.
Consider `CN1CCN(c2ccc(S(=O)(=O)N3CCC(Nc4ncc(C(F)(F)F)c(O[C@H]5CCOC5)n4)CC3)cc2)CC1` [Compound 204], for which the IC50 is 0.5 to 2.5 nM on CDK6, less than 0.5 nM at CDK2 and 0.5 to 2.5 nM on CDK4.
As to `N#Cc1cnc(NC2CCN(S(=O)(=O)c3ccc(N4CCOCC4)cc3)CC2)nc1NC1CCCC1` [Compound 94], the IC50 at CDK6 lay in the range of 10 to 50 nM; at CDK2, 0.5 to 2.5 nM; on CDK4, 2.5 to 10 nM.
The like results for `N#Cc1cnc(NC2CCN(S(=O)(=O)c3ccc(N4CCNCC4)cc3)CC2)nc1NC1CCCC1` [Compound 90] were, in that order, 0.5 to 2.5 nM, 0.5 to 2.5 nM and 0.5 to 2.5 nM.
The like results for `C[C@H]1CN(c2ccc(S(=O)(=O)N3CCC(Nc4ncc(C(F)(F)F)c(O[C@H]5CCOC5)n4)CC3)cc2)CCN1` [Compound 186] were, in that order, 0.5 to 2.5 nM, less than 0.5 nM and 0.5 to 2.5 nM.
With `Cn1cc(S(=O)(=O)N2CCC(Nc3ncc(C#N)c(NC4(C)CCCC4)n3)CC2)cn1` [Compound 118], the IC50 on CDK6, on CDK2 and at CDK4 was 0.5 to 2.5 nM throughout.
Regarding `COc1cc(S(=O)(=O)N2CCC(Nc3ncc(C(F)(F)F)c(O[C@H]4CCOC4)n3)CC2)ccc1C1=CCNCC1` [Compound 194], the IC50 on CDK6, at CDK2 and at CDK4 was 0.5 to 2.5 nM each time.
Regarding `O=S(=O)(c1ccc(N2CC3CC(C2)N3)nc1)N1CCC(Nc2ncc(C(F)(F)F)c(O[C@H]3CCOC3)n2)CC1` [Compound 180], the IC50 on CDK6 was 0.5 to 2.5 nM; on CDK2, less than 0.5 nM; on CDK4, 0.5 to 2.5 nM.
For `N#Cc1cnc(NC2CCN(S(=O)(=O)c3ccc(C4=CCNCC4)cc3)CC2)nc1N[C@H]1CCOC1` [Compound 92], the values for the IC50 at CDK6, at CDK2 and at CDK4 were 0.5 to 2.5 nM, 2.5 to 10 nM and 2.5 to 10 nM, respectively.
Take `Cc1cc(S(=O)(=O)N2CCC(Nc3ncc(C(F)(F)F)c(O[C@H]4CCOC4)n3)CC2)ccc1C1CCNCC1` [Compound 155]: the figures for the concentration for half-maximal inhibition (IC50) at CDK6, at CDK2 and at CDK4 were 0.5 to 2.5 nM, less than 0.5 nM and 0.5 to 2.5 nM, respectively.
For `O=S(=O)(c1ccc(Br)cc1)N1CCC(Nc2ncc(C(F)(F)F)c(O[C@H]3CCOC3)n2)CC1` [Example 99], the IC50 at CDK2 was in the range of 0.5 to 2.5 nM; on CDK4 it was 2.5 to 10 nM.
